This is an account of results in patent US9073961B2, “Substitution derivatives of N6 -benzyladenosine-5′-monophosphate, methods of preparation thereof, use thereof as medicaments, and therapeutic preparations containing these compounds” (UNIVERZITA PALACKEHO V OLOMOUCI, priority 2010, dated 2015).

Assay [1] has as its system CEM (T-lymphoblastoid leukemia). In words: Calcein AM cytotoxicity assay, CEM. The class given is cell-based. As to conditions: 72 hours incubation, Calcein AM. In outline: (§1)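 Seeded at 2.500-30.000 cells per well in DMEM with 10% fetal bovine serum, cells were allowed 24 h to stabilise before compound addition. After 72 h treatment, viability was read as calcein fluorescence 1 h after adding Calcein AM at 1 μg/ml final. GI50 derived from dose-response curves relative to control wells.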

Assay [2] relates to HOS (human osteogenic sarcoma). In words: Calcein AM cytotoxicity assay, HOS. It counts as cell-based. As to conditions: 72 hours incubation. Summed up: as §1
In assay [3] the test system is MCF-7 (breast carcinoma). In words: Calcein AM cytotoxicity assay, MCF7. It counts as cell-based. The conditions noted are these: 72 hours incubation. Summed up: as §1
The test system of assay [4] is G-361 (human malignant melanoma). In words: Calcein AM cytotoxicity assay, G-361. It counts as cell-based. The conditions noted are these: 72 hours incubation. From the text: Because toxic compounds negatively influence metabolic processes in cells, many standard cytotoxicity assays are based on measurement of metabolisation rate of various artificial substrates. Resulting product is then quantified e.g. by means of spectrometry. The assays can be easily modified for use in 96-well plates. For evaluation of cytotoxic effect of the novel substituted 9-substituted cytokinin derivatives of this invention, a microtiter assay based on quantification of metabolisation of Calcein AM was used. The assay is widely used in drug screening programs and in chemosensitivity testing. In the living cells, Calcein AM is enzymatically hydrolysed and accumulation of resulting calcein is manifested by green fluorescence.
In the routine screening the following cell lines have been used: CEM (T-lymphoblastoid leukemia), HL-60 (promyelocytic leukemia), K-562 (human erythroleukemia), MCF-7 (breast carcinoma), HOS (human osteogenic sarcoma), and G-361 (human malignant melanoma). Normal human fibroblasts BJ were used as a control for routine screening of the compounds. The cells were kept in Nunc/Corning 80 cm^2 plastic bottles and grown in cell culture medium (DMEM containing 5 g/l glucose, 2 mM glutamine, 100 U/ml penicilline, 100 μg/ml streptomycine, 10% fetal bovine serum and sodium hydrogencarbonate), the compounds were prepared according to the procedure of the present invention.
The cell suspensions were prepared and diluted according to the particular cell type and the expected target cell density (2.500-30.000 cells per well based on cell growth characteristics) and pippetted (80 μl) into 96-well plates. Inoculates were allowed a pre-incubation period of 24 hours at 37° C. and 5% CO2 for stabilisation. Tested compound was added in total volume of 20 μl of water at time zero. Usually, test compound was evaluated at six 3-fold dilutions. In routine testing, the highest concentration tested was 166.7 μM. All drug concentrations were tested in triplicates. Incubations of cells with the test compounds lasted for 72 hours at 37° C., in 5% CO2 atmosphere and 100% humidity. At the end of incubation period Calcein AM in PBS was added into final concentration of 1 μg/ml. After another 1 hour of incubation fluorescence (FD) was measured with the Labsystem FIA Reader Fluoroscan Ascent (Microsystems). Tumor cell survival (TCS) was estimated using the following equation: […]=(FDdrug exposed well/FDcontrol well)×100%. The GI50 value, the drug concentration causing 50% reduction of esterase activity, was calculated from the obtained dose response curves (FIG. 1).
Cytoxicity of novel compounds was tested on panel of cell lines of different histogenetic and species origin (Table 3). […] The effective novel derivatives killed tumour cells in concentrations close to 0.1-50 μM.

For assay [5], the system named is Human lymphocytes. As to the kind of experiment: Immunosuppressive activity, 3H-thymidine incorporation in concanavalin A activated lymphocytes. The class given is cell-based. As to conditions: 72 hours, [3H]-TdR incorporation, read-out: Human lymphocytes ED50. The text has this:
One of the most important parameters of specific cellular immunity is the proliferative response of lymphocytes to antigens or polyclonal mitogens. The majority of normal mammalian peripheral lymphocytes comprise resting cells. Antigens or nonspecific polyclonal mitogens have the capacity to activate lymphoid cells and this is accompanied by dramatic changes of intracellular metabolism (mitochondrial activity, protein synthesis, nucleic acids synthesis, formation of blastic cells and cellular proliferation). […] Variety of in vitro assays was developed to measure proliferative response of lymphocytes. The most commonly used is ^3H-thymidine incorporation method.
During cell proliferation, DNA has to be replicated before the cell is divided into two daughter cells. This close association between cell doublings and DNA synthesis is very attractive for assessing cell proliferation. If labelled DNA precursors are added to the cell culture, cells that are about to divide incorporate the labelled nucleotide into their DNA. Traditionally, those assays usually involve the use of radiolabelled nucleosides, particularly tritiated thymidine ([^3H]-TdR). The amount of [^3H]-TdR incorporated into the cellular DNA is quantified by liquid scintillation counting.
Human heparinized peripheral blood was obtained from healthy volunteers by cubital vein punction. The blood was diluted in PBS (1:3) and mononuclear cells were separated by centrifugation in Ficoll-Hypaque density gradient (Pharmacia, 1.077 g/ml) at 2200 rpm for 30 minutes. Following centrifugation, lymphocytes were washed in PBS and resuspended in cell culture medium (RMPI 1640, 2 mM glutamine, 100 U/ml penicillin, 100 μg/ml streptomycin, 10% fetal calf serum and sodium bicarbonate).
The cells were diluted at target density of 1.100.000 cells/ml and were added by pipette (180 μl) into 96-well microtiter plates. Four-fold dilutions of the intended test concentration were added at time zero in 20 μl aliquots to the microtiter plate wells. Usually, test compound was evaluated at six 4-fold dilutions. In routine testing, the highest well concentration was 266.7 μM. All drug concentrations were examined in duplicates. All wells with exception of unstimulated controls were activated with 50 μl of concanavalin A (25 μg/ml). Incubations of cells with test compounds lasted for 72 hours at 37° C., in 5% CO2 atmosphere and 100% humidity. At the end of incubation period, the cells were assayed by using the [^3H]-TdR:
Cell cultures were incubated with 0.5 μCi (20 μl of stock solution 500 μCi/ml) per well for 6 hours at 37° C. and 5% CO2. The automated cell harvester was used to lyse cells in water and adsorb the DNA onto glass-fiber filters in the format of microtiter plate. The DNA incorporated [^3H]-TdR was retained on the filter while unincorporated material passes through. The filters were dried at room temperature overnight, sealed into a sample bag with 10-12 ml of scintillant. The amount of [^3H]-TdR present in each filter (in cpm) was determined by scintillation counting in a Betaplate liquid scintillation counter. The effective dose of immunosuppressant (ED) was calculated using the following equation: ED=(CCPMdrug exposed well/mean CCPMcontrol wells)×100%. The ED50 value, the drug concentration inhibiting proliferation of 50% of lymphocytes, was calculated from the obtained dose response curves.
To evaluate immunosuppressive activity of substituted adenines, their ability to inhibit polyclonal mitogen induced proliferation of normal human lymphocytes was analyzed (Table 4). […] Effective immunosuppressive dose of new derivatives under in vitro conditions was close to 10-40 μM.
A general note: Incorporation of labelled thymidine or its analogues reports DNA synthesis.

Assay [6] deals with K-562 (human erythroleukemia). As to the kind of experiment: Calcein AM cytotoxicity assay, K-562. As to conditions: 72 hours incubation. The class given is cell-based. Summed up: as §1
The test system of assay [7] is HL-60 (promyelocytic leukemia). In words: Calcein AM cytotoxicity assay, HL60. It counts as cell-based, human. As to conditions: 72 hours incubation. In outline: as §1
Assay [8] relates to Normal human fibroblasts BJ. As to the kind of experiment: Calcein AM cytotoxicity assay, BJ. It counts as cell-based. As to conditions: 72 hours incubation. In outline:
as §1

Assay [9] deals with cytokinin-dependent tobacco callus Nicotiana tabacum L. cv. Wisconsin 38. As to the kind of experiment: Growth of cytokinin-dependent tobacco callus. It counts as cell-based.
The subject of assay [10] is p21^WAF-1. As to the kind of experiment: Induction of p21WAF-1 expression in MCF-7 cells (immunoblot). The class given is cell-based. As to the method:
MCF-7 cells cultured at 37° C. in 5% CO2 atmosphere in DMEM medium supplemented with 10% foetal calf serum were treated with compound 28 concentration ranges of 0-100 μM. Compound 28 was added into the medium from the 100 mM stock solution in DMSO. Cells were harvested 12 hours after incubation with compound 28, centrifuged (1000 rpm, 4° C., 5 min), washed twice by ice-cold PBS and re-centrifuged. These washed cells were then lysed by 1×CSB (loading buffer for SDS-PAGE, i.e. electrophoresis of proteins in polyacrylamide gel containing SDS). Cell lysate proteins were separated by SDS-PAGE and transferred onto a nitrocelulose (NC) membrane. NC membrane was blocked by 5% skimmed milk, 0.1% Tween 20 in PBS. Protein level of p21^WAF-1 and actin (as a loaded protein volume control) were detected immunochemically using commercially available specific monoclonal antibodies anti-p21^WAF-1 (Ab-1, Calbiochem) and anti-Actin (Clone AC-40, Sigma-Aldrich). The primary antibodies bind to target proteins were detected using rabbit secondary peroxidase-labeled antibody (RAM-Px, DAKO), followed by chemiluminiscence (ECL, Amersham-Pharmacia).
MCF-7 cells were incubated in the presence of 1 μmol of compound 28. In various time intervals from the moment of administration of 28 the cells were harvested and lyzed. […]
A general note: Immunoblotting shows a protein as a band on a membrane.

Usually GI50 stands for the concentration giving 50% growth inhibition.

Turning to `O=P(O)(O)OC[C@H]1O[C@@H](n2cnc3c(NCc4cccc(F)c4)ncnc32)[C@H](O)[C@@H]1O` [Compound 2, 6-(3-fluorobenzylamino)purine riboside-5′-monophosphate], the 50% growth inhibitory concentration (GI50) is 4 µM in [1]; over 167 µM in [2]; 16.6 µM in assay [3]; 15.7 µM in assay [4]; 7 µM in assay [6]; 0.92 µM in [7]. Besides, the GI50 in assay [8] is over 167 µM. Moreover, the EC50 in [5] was found to be 11.5 µM. Moreover, in assay [9] (at concentration with highest activity, relative to control cytokinin), the “Activity (%) [10^−5 mol · l^−1 KR = 100%]” value is 103 ± 6%. In addition, in assay [9] (tobacco callus fresh weight after four weeks), the “Concentration with highest activity” value was 10^−5 mol · l^−1.
`O=P(O)(O)OC[C@H]1O[C@@H](n2cnc3c(NCc4cccc(O)c4)ncnc32)[C@H](O)[C@@H]1O` [Compound 22, 6-(3-hydroxybenzylamino)purine riboside-5′-monophosphate]: the GI50 was 51.9 µM in [1]; over 167 µM in [2]; over 167 µM in assay [3]; over 167 µM in assay [4]; over 167 µM in assay [6]; 23.7 µM in assay [7]. In addition, the GI50 in assay [8] was over 167 µM. Further, in assay [5], the EC50 turned out to be 12.8 µM.
On to `COc1cccc(CNc2ncnc3c2ncn3[C@@H]2O[C@H](COP(=O)(O)O)[C@@H](O)[C@H]2O)c1O` [Compound 28, 6-(2-hydroxy-3-methoxybenzylamino)purine riboside-5′-monophosphate], for which the GI50 in [1] is 0.3 µM; in assay [2], 24.1 µM; in assay [3] it was 30.4 µM; in [4], 27.9 µM; in assay [6] it was 2.1 µM; in assay [7] it was 0.5 µM. Also, the GI50 in assay [8] is 69.7 µM. Besides, in assay [10] (1 μmol concentration), the “time of effective induction of p21^WAF-1 after addition” value was in the range of 6 to 24 h. Moreover, the “p21^WAF-1 protein induction in relation to concentration” value in [10] (12 hours, 0-100 μM tested, effective in range of units imol per liter) was “efficient p21^WAF-1 protein induction is achieved”. In addition, the EC50 in [5] worked out at 1.2 µM.
